According to patent EP0032432A1, “Prostanoid compounds and their preparation and pharmaceutical formulations” (GLAXO GROUP LIMITED, priority 1980, dated 1981):

Assays:
dogs = assay: Toxicity, oral administration to dogs; assay type: in vivo; conditions: given orally to dogs at a dose of 1 mg/kg
Description: The compounds are in general non-toxic at therapeutically useful doses.

human whole blood = assay: Inhibition of platelet aggregation (method of Born, collagen instead of ADP as pro-aggregatory agent; pA2 by Arunlakshana and Schild); assay type: cell-based; conditions: tested at a concentration of 2 pg/ml
Description: As indicated above, our tests have shown that compounds of formula (1) inhibit blood platelet aggregation and/or have bronchodilatatory activity. The test we have used for bronchodilatation is as described by K.M. Lulich, et al in British Journal of Pharmacology 58, 71-79, (1976) except guinea-pig lung is used instead of cat lung. The test for inhibition of platelet aggregation is as described by G.V. Born in Nature 194, 927-929 (1962) except collagen is used instead of ADP as the pro-aggregatory agent.
The following compounds were tested at a concentration of 2 pg/ml for their ability to inhibit the aggregation of human whole blood according to the method of G V Born in Nature 194, 927-929 (1962) except collagen was used instead of ADP as the pro-aggregatory agent. pA2 values were determined using the standard procedures of Arunlakshana and Schild in Br J Pharmac Chemother, 14, 48-58 (1959): […]

guinea-pig lung = assay: Potential bronchodilatation (method of Lulich et al., guinea-pig lung instead of cat lung; pA2 by Arunlakshana and Schild); assay type: cell-based; conditions: tested at concentrations between 2 x 10^-7 to 2x10^-5 mole/litre; for Kb: Cavia porcellus

Row | Structure (SMILES) | Kb (human whole blood) | Kb (guinea-pig lung) | further results
1 | COc1ccc(-c2ccc(COC3CC(=O)C(N4CCOCC4)C3CC=CCCCC(=O)O)cc2)cc1 (racemic) [11a), [1α(Z),2β,5α]-(±)-7-[5-[[4'-Methoxy(1,1'-biphenyl)-4-yl]methoxy]-2-(4-morpholinyl)-3-oxocyclopentyl]-5-heptenoic acid] | 15.8 nM | – | adverse effects (dogs): no adverse effects
2 | Cc1ccc(-c2ccc(COC3CC(=O)C(N4CCOCC4)C3CCCCCCC(=O)O)cc2)cc1 (racemic) [18a), (1α,2β,5α)-(±)-5-[[4'-Methyl(1,1'-biphenyl)-4-yl]methoxy]-2-(4-morpholinyl)-3-oxocyclopentaneheptanoic acid] | – | – | pA2 (guinea-pig lung): 8.6
3 | COc1ccc(-c2ccc(COC3CC(=O)C(N4CCCCC4)C3CC=CCCCC(=O)O)cc2)cc1 (racemic) [11e), [1α(Z),2β,5α]-(±)-7-[5-[[4'-Methoxy(1,1'biphenyl)-4-yl]methoxy]-3-oxo-2-(1-piperidinyl)cyclopentyl]-5-heptenoic acid] | – | 1.58 nM | –
4 | Cc1ccc(-c2ccc(COC3CC(=O)C(N4CCCCC4)C3CC=CCCCC(=O)O)cc2)cc1 (racemic) [11g), [1α(Z),2β,5α]-(±)-7-[5-[[4'-Methyl(1,1'-biphenyl)-4-yl]ntethoxy]-3-oxo-2-(1-piperidinyl)cyclopentyl]-5-heptenoic acid] | – | 3.16 nM | –
5 | Cc1ccc(-c2ccc(COC3CC(=O)C(N4CCOCC4)C3CC=CCCCC(=O)O)cc2)cc1 (racemic) [Example 5a), [1α(Z),2β,5α-(±)-7-[5-[[4'-Methyl(1,1'-biphenyl)-4-yl]methoxy]-2-(4-morpholinyl)-3-oxocyclopentyl]-5-heptenoic acid] | 15.8 nM | – | –
6 | O=C(O)CCCC=CCC1C(OCc2ccc(Cc3ccccc3)cc2)CC(=O)C1N1CCOCC1 (racemic) [11b), 1α(Z),2β,5α]-(±)-7-[2-(4-Morpholinyl)-3-oxo-5-[[4-(phenylmethyl)phenyl]methoxy]cyclopentyl]-5-heptenoic acid] | 39.8 nM | – | –
7 | COc1ccc(-c2csc(COC3CC(O)C(N4CCOCC4)C3CC=CCCCC(=O)O)c2)cc1 (racemic) [Example 10b), [1α(Z),2β,3α,5α]-(±)-7-[3-Hydroxy-5-[[4-(4-methoxyphenyl)thien-2-yl]methoxy]-2-(4-morpholinyl)cyclopentyl]-5-heptenoic acid] | – | 1 nM | –
8 | O=C(O)CCCC=CCC1C(OCc2ccc(Cc3ccccc3)cc2)CC(=O)C1N1CCCCC1 (racemic) [Example 11f), [1α(Z),2β,5α]-(±)-7-[3-Oxo-5-[4-(phenylmethyl)phenylmethoxy]-2-(1-piperidinyl)cyclopentyl]-5-heptenoic acid] | – | – | adverse effects (dogs): no adverse effects
9 | O=C(O)CCCC=CCC1C(OCc2ccc(-c3cccs3)cc2)CC(=O)C1N1CCOCC1 (racemic) [5f), [1α(Z),2β,5α]-(±)-7-[2-(4-Morpholinyl)-3-oxo-5-[4-(thien-2-yl)phenylmethoxy]cyclopentyl]-5-heptenoic acid] | 44.7 nM | – | –
10 | O=C(O)CCCC=CCC1C(OCc2ccc(-c3ccc(-c4ccccc4)cc3)cc2)CC(=O)C1N1CCOCC1 (racemic) [Example 11c), [1α(Z),2β,5α]-(±)-7-[2-(4-Morpholinyl)-3-oxo-5-[[(1,1';4.1"-terphenyl)-4-yl]methoxy]cyclopentyl]-5-heptenoic acid] | – | – | adverse effects (dogs): no adverse effects
11 | O=C(O)CCCC=CCC1C(OCc2ccc(Cc3ccccc3)cc2)CC(=O)C1N1CCS(=O)(=O)CC1 (racemic) [11i), [1α(Z),2β,5α]-(±)-7-[3-Oxo-5-[4-(phenylmethyl)-phenylmethoxy]-2-(4-thiomorpholinyl)cyclopentyl]-5-heptenoic acid, S-dioxide] | – | 3.16 nM | –
12 | COc1ccc(-c2ccc(COC3CC(=O)C(N4CCOCC4)C3CCCCCCC(=O)O)cc2)cc1 (racemic) [18d), (1α,2β,5α)-(±)-5-[[-4'-Methoxy(1,1'-biphenyl)-4-yl]-2-(4-morpholinyl)-3-oxocyclopentaneheptanoic acid] | – | – | pA2 (guinea-pig lung): 8.9
